According to ChEMBL document CHEMBL1201862, “PubChem BioAssay data set” (2004):
The source made the active and inactive calls.

Tests used:
[1] = target: T1, Short transient receptor potential channel 4 (Mus musculus, UniProt Q9QUQ5); experiment: TRPC4 positive allosteric modulators, dose response, cell-based, HEK293 TRPC4/mu-opioid, Fluo-4 calcium, EC20 DAMGO (AID 434941); format: functional
T1 sequence (Q9QUQ5 whole entry): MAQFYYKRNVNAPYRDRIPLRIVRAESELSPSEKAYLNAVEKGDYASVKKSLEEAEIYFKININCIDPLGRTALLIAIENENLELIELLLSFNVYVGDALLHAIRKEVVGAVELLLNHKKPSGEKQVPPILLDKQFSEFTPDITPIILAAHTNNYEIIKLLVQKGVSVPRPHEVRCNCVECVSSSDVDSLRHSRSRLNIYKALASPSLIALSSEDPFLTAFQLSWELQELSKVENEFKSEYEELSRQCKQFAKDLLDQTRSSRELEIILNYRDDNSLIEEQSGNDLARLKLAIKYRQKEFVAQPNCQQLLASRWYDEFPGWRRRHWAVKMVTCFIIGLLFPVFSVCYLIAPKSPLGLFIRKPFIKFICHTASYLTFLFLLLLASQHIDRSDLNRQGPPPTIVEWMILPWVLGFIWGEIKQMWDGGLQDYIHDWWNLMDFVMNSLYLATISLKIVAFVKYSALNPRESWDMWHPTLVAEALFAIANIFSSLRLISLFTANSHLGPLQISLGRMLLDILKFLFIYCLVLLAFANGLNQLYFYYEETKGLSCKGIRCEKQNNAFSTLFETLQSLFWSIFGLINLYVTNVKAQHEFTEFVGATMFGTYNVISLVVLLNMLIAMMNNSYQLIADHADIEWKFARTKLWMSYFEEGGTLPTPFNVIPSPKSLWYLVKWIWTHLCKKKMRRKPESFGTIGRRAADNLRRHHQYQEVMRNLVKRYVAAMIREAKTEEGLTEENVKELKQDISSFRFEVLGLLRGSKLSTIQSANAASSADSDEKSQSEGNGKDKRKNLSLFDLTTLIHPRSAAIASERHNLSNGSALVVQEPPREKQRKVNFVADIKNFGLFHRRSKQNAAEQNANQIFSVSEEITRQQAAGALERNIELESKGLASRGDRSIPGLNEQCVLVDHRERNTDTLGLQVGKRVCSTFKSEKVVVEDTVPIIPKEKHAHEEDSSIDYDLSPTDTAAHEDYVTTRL

[2] = target: T2, Hexokinase HKDC1 (Homo sapiens, UniProt Q2TB90); experiment: HKDC1 hexokinase activators, dose response, biochemical, W721R variant (AID 504730); format: functional
T2 sequence (Q2TB90 whole entry): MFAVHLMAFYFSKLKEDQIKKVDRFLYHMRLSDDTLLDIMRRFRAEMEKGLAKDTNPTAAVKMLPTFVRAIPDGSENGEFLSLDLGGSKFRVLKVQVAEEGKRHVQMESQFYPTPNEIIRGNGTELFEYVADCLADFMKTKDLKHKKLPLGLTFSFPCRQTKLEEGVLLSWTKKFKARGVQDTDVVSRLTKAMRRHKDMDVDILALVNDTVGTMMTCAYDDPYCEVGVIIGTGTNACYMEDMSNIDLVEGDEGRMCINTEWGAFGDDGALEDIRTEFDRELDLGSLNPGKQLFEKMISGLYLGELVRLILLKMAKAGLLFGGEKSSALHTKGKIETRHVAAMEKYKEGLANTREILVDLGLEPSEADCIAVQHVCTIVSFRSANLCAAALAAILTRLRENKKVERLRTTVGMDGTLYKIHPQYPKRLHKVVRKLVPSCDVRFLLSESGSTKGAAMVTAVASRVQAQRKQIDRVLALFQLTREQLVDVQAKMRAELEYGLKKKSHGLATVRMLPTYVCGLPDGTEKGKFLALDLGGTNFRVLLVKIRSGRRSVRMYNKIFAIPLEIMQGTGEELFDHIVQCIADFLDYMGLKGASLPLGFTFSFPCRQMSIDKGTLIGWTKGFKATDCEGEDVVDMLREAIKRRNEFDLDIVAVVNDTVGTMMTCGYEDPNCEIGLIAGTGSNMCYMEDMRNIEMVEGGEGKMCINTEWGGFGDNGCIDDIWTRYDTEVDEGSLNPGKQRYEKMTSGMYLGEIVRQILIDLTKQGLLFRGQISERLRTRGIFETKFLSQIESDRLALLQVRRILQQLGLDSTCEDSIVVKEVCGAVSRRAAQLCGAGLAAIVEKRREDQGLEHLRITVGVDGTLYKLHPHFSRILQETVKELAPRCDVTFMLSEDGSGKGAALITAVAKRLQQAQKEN

[3] = target: T3, RNA-binding protein pos-1 (Caenorhabditis elegans, UniProt G5EF15); experiment: inhibitors of POS-1/mex-3 RNA binding, dose response, biochemical, fluorescence polarization (AID 1964);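 note: purified POS-1 fused to maltose binding protein made in E. coli; potency of compounds blocking POS-1 binding to fluorescent RNA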
T3 sequence (G5EF15 whole entry): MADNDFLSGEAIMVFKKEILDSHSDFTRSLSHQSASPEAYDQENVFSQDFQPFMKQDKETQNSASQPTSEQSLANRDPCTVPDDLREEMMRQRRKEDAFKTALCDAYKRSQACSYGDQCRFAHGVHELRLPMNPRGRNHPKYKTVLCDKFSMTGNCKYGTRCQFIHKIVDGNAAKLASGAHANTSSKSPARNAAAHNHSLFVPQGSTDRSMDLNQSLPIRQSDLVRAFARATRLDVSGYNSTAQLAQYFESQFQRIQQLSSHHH

[4] = target: T4, Zinc finger protein mex-5 (Caenorhabditis elegans, UniProt Q9XUB2); experiment: MEX-5/TCR-2 RNA interaction inhibitors, dose response, biochemical, C. elegans, fluorescence polarization (AID 1960)
T4 sequence (Q9XUB2 whole entry): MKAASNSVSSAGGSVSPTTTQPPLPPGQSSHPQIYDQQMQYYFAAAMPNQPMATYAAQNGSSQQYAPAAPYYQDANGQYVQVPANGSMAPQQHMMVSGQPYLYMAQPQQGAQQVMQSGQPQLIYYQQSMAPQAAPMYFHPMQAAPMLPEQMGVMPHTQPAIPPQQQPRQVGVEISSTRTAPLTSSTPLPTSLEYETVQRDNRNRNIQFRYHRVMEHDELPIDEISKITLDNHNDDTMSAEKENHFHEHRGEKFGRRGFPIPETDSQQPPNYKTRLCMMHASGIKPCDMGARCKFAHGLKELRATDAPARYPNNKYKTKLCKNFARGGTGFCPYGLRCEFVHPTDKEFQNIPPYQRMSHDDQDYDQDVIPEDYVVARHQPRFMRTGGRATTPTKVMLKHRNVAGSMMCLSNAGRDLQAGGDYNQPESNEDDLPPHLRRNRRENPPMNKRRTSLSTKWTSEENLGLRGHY

[5] = target: T5, Corticotropin-releasing factor receptor 2/Corticotropin-releasing factor-binding protein (Homo sapiens, UniProt P24387+Q13324); experiment: activators of CRF receptor 2 with binding protein – uHTS hits, confirmation (AID 602473); format: functional; settings: read-out: EC50_Mean
T5 sequence (Q13324 whole entry): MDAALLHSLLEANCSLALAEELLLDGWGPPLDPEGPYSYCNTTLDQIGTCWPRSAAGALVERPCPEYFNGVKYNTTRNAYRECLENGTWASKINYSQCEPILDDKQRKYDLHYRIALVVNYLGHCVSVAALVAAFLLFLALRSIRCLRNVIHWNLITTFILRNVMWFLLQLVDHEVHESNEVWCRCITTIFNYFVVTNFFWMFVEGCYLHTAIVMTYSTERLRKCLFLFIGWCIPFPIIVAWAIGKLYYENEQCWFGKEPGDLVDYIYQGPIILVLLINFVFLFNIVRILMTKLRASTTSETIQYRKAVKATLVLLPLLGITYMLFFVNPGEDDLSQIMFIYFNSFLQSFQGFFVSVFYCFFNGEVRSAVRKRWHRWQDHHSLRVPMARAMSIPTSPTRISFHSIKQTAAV
T5 sequence (P24387 whole entry): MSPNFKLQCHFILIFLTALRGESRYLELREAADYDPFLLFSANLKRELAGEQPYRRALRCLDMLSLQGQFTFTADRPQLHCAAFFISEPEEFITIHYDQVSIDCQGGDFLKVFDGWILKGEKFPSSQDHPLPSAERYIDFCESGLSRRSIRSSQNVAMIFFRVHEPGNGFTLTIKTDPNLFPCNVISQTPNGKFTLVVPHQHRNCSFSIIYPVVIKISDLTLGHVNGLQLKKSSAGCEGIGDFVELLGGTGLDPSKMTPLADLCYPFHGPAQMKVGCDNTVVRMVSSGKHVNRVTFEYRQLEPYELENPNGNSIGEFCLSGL

[6] = target: ORF 73 (Human herpesvirus 8, UniProt O40947); experiment: inhibitors of C-LANA binding to LBS DNA, dose response, biochemical, fluorescence polarization, cherry-picked samples (AID 504725); set-up: species or system Human gammaherpesvirus 8;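 note: fluorescence polarization of a labeled DNA duplex reporting LANA DNA binding; potency is for inhibitors that block LANA binding to the DNA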
Chain of ORF 73 (O40947 whole entry): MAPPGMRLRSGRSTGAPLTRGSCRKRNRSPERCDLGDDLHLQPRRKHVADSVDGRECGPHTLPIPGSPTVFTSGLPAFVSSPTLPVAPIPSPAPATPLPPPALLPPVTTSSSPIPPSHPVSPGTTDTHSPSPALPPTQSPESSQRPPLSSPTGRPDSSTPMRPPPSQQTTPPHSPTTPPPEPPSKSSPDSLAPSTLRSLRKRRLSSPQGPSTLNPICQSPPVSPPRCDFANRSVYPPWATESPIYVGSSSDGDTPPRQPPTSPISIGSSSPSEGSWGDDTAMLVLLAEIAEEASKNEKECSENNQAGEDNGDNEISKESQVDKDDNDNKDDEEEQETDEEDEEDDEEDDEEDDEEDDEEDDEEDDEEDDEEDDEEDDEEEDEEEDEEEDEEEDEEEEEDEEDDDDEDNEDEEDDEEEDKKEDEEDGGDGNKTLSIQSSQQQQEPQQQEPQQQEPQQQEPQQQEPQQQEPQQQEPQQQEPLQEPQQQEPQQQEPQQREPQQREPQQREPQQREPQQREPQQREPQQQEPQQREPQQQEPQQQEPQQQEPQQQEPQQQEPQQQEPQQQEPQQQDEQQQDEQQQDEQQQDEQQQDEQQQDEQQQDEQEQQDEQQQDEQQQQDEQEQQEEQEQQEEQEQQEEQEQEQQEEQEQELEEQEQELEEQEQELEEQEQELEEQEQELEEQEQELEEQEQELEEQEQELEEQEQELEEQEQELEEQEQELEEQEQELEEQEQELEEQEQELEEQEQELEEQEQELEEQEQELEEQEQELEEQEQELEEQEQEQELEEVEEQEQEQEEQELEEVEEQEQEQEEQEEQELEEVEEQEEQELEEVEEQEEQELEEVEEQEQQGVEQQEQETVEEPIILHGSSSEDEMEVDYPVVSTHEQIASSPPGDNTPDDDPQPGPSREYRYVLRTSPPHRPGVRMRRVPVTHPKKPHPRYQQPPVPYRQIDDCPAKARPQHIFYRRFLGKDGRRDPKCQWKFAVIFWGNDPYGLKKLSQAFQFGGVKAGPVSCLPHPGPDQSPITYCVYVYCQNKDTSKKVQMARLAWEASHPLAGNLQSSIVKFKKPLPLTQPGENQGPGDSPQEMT

[7] = target: T6, Aminopeptidase N (Plasmodium falciparum FcB1/Columbia, UniProt O96935); experiment: P. falciparum M1AAP inhibitors, biochemical, fluorogenic H-Leu-NHMec substrate, 1536-well (AID 1445); set-up: species or system Plasmodium falciparum 3D7, 3D7
T6 sequence (O96935 whole entry): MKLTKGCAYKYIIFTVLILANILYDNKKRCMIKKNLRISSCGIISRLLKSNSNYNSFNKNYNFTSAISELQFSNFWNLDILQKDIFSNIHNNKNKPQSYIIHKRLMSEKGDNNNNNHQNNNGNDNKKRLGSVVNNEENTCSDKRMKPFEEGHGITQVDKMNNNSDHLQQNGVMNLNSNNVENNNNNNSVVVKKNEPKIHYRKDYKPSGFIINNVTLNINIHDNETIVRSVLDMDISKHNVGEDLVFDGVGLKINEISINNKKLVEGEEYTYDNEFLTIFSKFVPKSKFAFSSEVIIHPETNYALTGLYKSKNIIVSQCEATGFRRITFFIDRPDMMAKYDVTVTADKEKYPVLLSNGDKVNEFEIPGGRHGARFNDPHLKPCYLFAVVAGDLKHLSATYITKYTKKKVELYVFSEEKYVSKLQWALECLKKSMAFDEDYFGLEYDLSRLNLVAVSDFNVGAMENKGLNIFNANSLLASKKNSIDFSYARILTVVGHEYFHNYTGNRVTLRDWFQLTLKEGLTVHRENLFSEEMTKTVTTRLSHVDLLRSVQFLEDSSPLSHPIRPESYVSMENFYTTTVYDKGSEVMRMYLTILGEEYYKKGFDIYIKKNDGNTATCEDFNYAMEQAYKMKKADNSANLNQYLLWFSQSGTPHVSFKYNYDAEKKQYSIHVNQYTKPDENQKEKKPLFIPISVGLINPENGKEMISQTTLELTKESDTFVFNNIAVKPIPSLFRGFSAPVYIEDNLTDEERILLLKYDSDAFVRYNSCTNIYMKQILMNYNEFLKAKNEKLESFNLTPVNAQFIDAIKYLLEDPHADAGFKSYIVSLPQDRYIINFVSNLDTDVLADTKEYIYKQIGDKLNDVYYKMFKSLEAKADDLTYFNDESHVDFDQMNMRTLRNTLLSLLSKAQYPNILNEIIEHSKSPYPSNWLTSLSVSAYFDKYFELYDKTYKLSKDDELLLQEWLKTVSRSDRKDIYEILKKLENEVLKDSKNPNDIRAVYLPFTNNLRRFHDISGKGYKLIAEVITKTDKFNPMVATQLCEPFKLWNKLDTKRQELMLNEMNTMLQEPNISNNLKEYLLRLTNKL

[8] = target: T7, Calpain-2 catalytic subunit (Sus scrofa, UniProt P43367); experiment: pig calpain II inhibitor potency, dose response, biochemical, fluorogenic peptide substrate (AID 1420); format: functional
T7 sequence (P43367 whole entry): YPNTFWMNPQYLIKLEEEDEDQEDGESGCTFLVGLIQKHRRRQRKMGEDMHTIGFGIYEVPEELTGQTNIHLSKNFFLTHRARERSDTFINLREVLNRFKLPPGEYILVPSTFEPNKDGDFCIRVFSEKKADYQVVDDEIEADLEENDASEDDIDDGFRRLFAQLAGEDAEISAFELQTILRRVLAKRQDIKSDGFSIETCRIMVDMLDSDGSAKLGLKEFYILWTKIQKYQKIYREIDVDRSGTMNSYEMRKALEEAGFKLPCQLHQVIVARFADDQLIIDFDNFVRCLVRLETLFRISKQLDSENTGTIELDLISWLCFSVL

[9] = target: Troponin, cardiac muscle (Homo sapiens, UniProt P19429+P45379+P63316); experiment: Fluorescence-based biochemical high throughput dose response assay for activators of the calcium sensitivity of cardiac Regulated Thin Filaments (RTF). [Related pubchem assays (depositor defined):AID493008, AID493018, AID504382, AID504383]; format: protein-complex assay
[10] = target: Voltage-dependent T-type calcium channel subunit alpha-1H (Homo sapiens, UniProt O95180); experiment: Cav3.2 T-type channel inhibitors, cell-based, synthetic library set 1, calcium flux (AID 493022); format: functional
Chain of Voltage-dependent T-type calcium channel subunit alpha-1H (O95180 whole entry): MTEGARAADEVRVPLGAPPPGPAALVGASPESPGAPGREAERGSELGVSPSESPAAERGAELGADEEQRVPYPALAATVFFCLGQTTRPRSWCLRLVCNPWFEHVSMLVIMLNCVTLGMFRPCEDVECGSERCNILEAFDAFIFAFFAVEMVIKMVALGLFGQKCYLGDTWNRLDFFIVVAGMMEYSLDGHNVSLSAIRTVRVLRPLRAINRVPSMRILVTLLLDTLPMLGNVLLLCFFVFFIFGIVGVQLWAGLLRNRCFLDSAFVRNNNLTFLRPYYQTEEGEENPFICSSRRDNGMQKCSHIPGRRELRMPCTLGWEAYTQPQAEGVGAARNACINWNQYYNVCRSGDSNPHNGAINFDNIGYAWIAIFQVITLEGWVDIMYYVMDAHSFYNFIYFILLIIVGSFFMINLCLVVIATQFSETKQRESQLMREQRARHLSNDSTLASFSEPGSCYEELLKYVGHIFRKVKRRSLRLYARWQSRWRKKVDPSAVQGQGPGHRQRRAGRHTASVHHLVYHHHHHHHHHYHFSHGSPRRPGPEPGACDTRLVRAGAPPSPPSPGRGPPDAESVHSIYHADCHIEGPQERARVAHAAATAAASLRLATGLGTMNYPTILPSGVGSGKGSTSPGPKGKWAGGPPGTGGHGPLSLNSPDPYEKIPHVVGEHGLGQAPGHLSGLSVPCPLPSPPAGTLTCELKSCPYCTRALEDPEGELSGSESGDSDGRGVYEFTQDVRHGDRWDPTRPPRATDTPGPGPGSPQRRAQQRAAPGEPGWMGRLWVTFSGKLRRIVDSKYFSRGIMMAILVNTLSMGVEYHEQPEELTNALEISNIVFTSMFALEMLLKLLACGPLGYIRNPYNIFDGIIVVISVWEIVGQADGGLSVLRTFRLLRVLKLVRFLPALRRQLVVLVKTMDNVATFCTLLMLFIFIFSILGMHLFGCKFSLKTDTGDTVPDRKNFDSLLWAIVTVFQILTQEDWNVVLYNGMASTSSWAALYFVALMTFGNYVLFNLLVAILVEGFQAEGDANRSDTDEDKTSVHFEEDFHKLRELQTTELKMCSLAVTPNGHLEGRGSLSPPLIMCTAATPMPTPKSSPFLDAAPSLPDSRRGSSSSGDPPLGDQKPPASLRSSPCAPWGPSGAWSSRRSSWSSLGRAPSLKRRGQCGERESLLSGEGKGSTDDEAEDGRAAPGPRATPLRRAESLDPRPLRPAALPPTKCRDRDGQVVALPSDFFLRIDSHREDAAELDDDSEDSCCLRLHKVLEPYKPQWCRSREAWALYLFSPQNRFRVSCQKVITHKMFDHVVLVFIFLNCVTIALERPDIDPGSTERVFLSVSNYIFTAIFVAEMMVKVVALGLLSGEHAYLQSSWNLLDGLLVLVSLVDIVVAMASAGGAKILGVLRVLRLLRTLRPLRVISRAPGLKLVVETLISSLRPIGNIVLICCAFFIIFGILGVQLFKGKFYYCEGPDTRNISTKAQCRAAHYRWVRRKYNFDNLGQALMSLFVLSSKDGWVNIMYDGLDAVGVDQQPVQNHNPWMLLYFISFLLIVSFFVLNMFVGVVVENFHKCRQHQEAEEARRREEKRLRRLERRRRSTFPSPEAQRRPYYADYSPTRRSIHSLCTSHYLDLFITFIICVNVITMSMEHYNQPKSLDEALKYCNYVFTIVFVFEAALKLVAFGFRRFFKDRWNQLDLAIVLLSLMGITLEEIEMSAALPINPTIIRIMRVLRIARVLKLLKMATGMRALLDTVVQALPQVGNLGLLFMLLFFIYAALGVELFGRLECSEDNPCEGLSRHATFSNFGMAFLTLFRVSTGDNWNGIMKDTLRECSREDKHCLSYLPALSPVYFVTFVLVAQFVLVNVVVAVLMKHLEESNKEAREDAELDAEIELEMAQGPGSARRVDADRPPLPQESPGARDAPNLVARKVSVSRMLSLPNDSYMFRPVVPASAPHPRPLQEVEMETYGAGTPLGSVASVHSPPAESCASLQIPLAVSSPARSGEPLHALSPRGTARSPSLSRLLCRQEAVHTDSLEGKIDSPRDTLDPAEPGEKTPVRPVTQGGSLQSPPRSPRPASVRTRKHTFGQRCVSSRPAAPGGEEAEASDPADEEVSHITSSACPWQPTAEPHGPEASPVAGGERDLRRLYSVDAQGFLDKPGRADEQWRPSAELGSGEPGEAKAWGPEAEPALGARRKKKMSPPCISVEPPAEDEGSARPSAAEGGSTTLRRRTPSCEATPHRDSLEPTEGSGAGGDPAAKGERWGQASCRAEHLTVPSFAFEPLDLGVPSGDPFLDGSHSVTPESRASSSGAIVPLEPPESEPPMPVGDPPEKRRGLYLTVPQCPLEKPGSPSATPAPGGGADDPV

[11] = target: Hexokinase (Trypanosoma brucei, UniProt Q38C41); experiment: Confirmation assay for inhibitors of Trypanosoma brucei hexokinase 1-Analogue-first series. [Related pubchem assays (depositor defined):AID1430, AID1632, AID2516, AID2560, AID2579, AID2600, AID449725, AID492951]; format: functional
Chain of Hexokinase (Q38C41 whole entry): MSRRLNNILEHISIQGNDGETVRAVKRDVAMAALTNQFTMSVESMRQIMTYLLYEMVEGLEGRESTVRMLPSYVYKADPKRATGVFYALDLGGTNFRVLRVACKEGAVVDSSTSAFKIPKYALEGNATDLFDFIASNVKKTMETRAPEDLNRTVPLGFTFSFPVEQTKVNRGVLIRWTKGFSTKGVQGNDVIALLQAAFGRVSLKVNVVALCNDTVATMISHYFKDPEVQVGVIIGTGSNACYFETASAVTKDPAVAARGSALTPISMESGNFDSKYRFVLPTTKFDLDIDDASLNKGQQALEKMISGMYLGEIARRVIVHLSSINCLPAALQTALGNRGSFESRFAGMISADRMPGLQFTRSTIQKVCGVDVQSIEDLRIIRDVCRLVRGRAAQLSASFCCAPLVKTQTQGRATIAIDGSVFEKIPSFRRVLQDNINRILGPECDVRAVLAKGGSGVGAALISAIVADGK

[12] = target: T1, Short transient receptor potential channel 4; experiment: mouse TRPC4 channel activators, dose response, cell-based, HEK293 TRPC4/mu-opioid, Fluo-4 calcium (AID 434937); format: functional

For `COc1ccc(Cl)cc1C(=O)NCCN(C)C`, the EC50 [1] was 670 nM (active).

In the case of `COc1ccc(NC(=O)Cc2c[nH]c3ccccc23)cc1S(=O)(=O)N1CCCCC1`, the EC50 [2] is reported as > 80 µM (inactive).

`Clc1ccc(C2=CC(c3ccco3)n3ncnc3N2)cc1` (configuration not stated) was tested, and the EC50 [3] was 24.7 µM (inconclusive), the EC50 [4] was 3.36 µM (active) and the EC50 [5] was 8.29 µM (active). The AC50 [6] was 171 µM (active).

`CCN(CC)C(=O)c1ccc(C(=O)c2c(C)cc(C)cc2C)cc1` was tested, and the EC50 [2] was > 80 µM (inactive).

With `COc1ccc(/C=C/C(=O)NC(=S)Nc2ccc(C(=O)O)cc2)cc1` the IC50 [7] was 53 µM (active), the IC50 [8] was > 50 µM (not active) and the EC50 [9] was > 71.5 µM (inactive).

For `CC(Oc1ccccc1)C(=O)Nc1nnc(-c2ccc3c(c2)OCCO3)o1` (configuration not stated), the EC50 [10] was 10 µM (active).

`O=C(COc1ccc(F)cc1Cl)Nc1nnc(-c2ccc(F)c(F)c2)o1` was tested, and the EC50 [10] was 1.1 µM (active).

For `COc1ccccc1NS(=O)(=O)c1cc([N+](=O)[O-])ccc1N/N=C/c1c(C)[nH]c2ccccc12`, the EC50 [9] was 2.57 µM (active).

For `O=C(c1ccccc1)n1sc2ccccc2c1=O`, the IC50 [11] was > 25 µM (inactive).

With `CCOC(=O)c1c(NC(=O)COC(=O)Cc2c[nH]c3ccccc23)sc(C(=O)N(C)C)c1C` the EC50 [12] was 5.96 µM (active) and the EC50 [1] was 420 nM (active).

For `Cc1ccccc1NC(=O)Cn1sc2ccccc2c1=O`, the IC50 [11] was 8.52 µM (active).
